Results on one molecule are retold here after US20230220331A1, “TEMPORARY TREATMENT MEDIUM, TREATMENT KIT, EMBRYOGENESIS ARREST INHIBITOR, EMBRYOGENESIS ARREST INHIBITORY METHOD, DEVELOPMENTAL ENGINEERING PRODUCT PREPARATION METHOD, TRANSPLANTATION METHOD, THERAPEUTIC METHOD, AND DEVELOPMENTAL ENGINEERING PRODUCT” (priority 2020, published 2023).

One assay deals with inbred mouse B6J embryos. Description: Generation of Flox inbred mice (individuals) by one-step method, high concentration ssODN (Treatment Example 11). Format: cell-based. The settings on record: floxed MK2 1STEP (HIGH CONCENTRATION). The procedure: Furthermore, in the same manner, the individual production is performed in an inbred mouse B6J strain by an electroporation method (1STEP method) by using a high concentration ssODN.

In a further assay the test system is NOD-scid mouse embryos. As to the kind of experiment: Bbox1 and IL2rg DKO screening in NOD-scid mice (Treatment Example 14). The assay is classed as cell-based. The protocol:
Then, in the same manner as in Treatment Example 7 of Example 1, in the NOD-scid strain, which is another strain of a severe combined immunodeficiency mouse, genome editing of multiple genes was performed, and individuals were produced. Here, individuals in which both the mBBOX1 and mIL2RG genes of NOD-scid mice were knocked out were prepared by the same treatment method as the above-mentioned treatment example used for BALB/c nude.

Assay [1] has as its system pronuclear stage embryos of F344 rat. As to the kind of experiment: Flox rat knock-in by 2STEP electroporation with high concentration ssODN (Treatment Example 6). The assay is classed as cell-based. The settings on record: ssODN 800 ng/μL, 14 transfer pulses. The protocol:
1. At least 3 hours before TAKE, 5 drops of Y-27632-added KSOM AA medium (Y-27632 final concentration 10 μM, an example of the “temporary treatment medium” of this example) were placed on a 35 mm Petri dish and drops covered with paraffin oil.
2. Pronuclear stage embryos were collected, placed in Y-27632-added KSOM AA medium, and cultured for about 30 minutes to 1 hour (temporary treatment).
3. After that, the first TAKE was performed.
4. After TAKE, the embryos were placed in Y-27632-added KSOM AA medium and cultured under 37° C., 5% CO2, and 5% O2 conditions for 30 minutes and more and up to 12 hours (temporary treatment).
5. Then, they were placed in Y-27632-free KSOM AA medium (an example of the “normal medium” of this example), and cultured under 37° C., 5% CO2, and 5% O2 conditions until the second TAKE.
6. The next day, the embryos that had become two cells were separated, and about 20 to 22 hours after egg collection, they were placed in Y-27632-added KSOM AA medium again and cultured for about 30 minutes to 1 hour (temporary treatment).
7. After that, the second TAKE was performed.
8. After the second TAKE, the embryos were placed in Y-27632-added KSOM AA medium and cultured for about 30 minutes to 1 hour (temporary treatment).
9. Then, they were transferred to mR1ECM medium (an example of “normal medium” of this example). […]

Assay [2] concerns frozen embryos of C57BL/6J. As to the kind of experiment: Recovery of re-frozen and re-thawed blastocysts, cytochalasin B vs Y-27632 (Treatment Example 10). The assay is classed as cell-based, mouse. The settings on record: 10 μM in mWM; 19 embryos. The protocol: In this treatment example, as in the above-mentioned treatment example 9, the normal medium (hereinafter, referred to as “Y− medium” as in the treatment example 9), the temporary treatment medium to which Y-27632 is added (hereinafter, referred to as “Y+ medium” as in the treatment example 9), and a CB-added medium (hereinafter, referred to as “CB+ medium”) were used. The concentrations of CB in the CB+ medium were 5 μM and 10 μM are prepared. As the manipulation, the recovery rates when frozen embryos were thawed and developed, then re-frozen in blastocysts and re-thawed were compared.
For the treatment, 107 frozen embryos of C57BL/6J (provided from CLEA Japan, Inc.) at the 2-cell stage were used. Firstly, the frozen embryos at the 2-cell stage were thawed and blastocysts were developed as they were in a normal medium.
Then, the blastocysts were then transferred to each of the above media and placed for 30 minutes. Then, the embryos were transferred to Y− medium again and placed for 30 minutes.
Then, each embryo was frozen.
Then, the embryos were then thawed and placed in M2 medium for 10 minutes.
Then, each embryo was evenly divided and placed on the medium for 1 hour.
The embryos were observed by returning to the Y− medium again. This observation was performed immediately after thawing, 3 hours later, and 24 hours later.

In assay [3] the test system is Pronuclear stage embryos of C57BL/6J. Description: Knockout mouse production by electroporation (TAKE), Mk-3 gene (Treatment Example 1). Format: cell-based. The protocol: The TAKE was carried out according to the method described in Patent Document 2.
1. By 3 hours before TAKE, Y-27632-added mWM medium (Y-27632 final concentration 10 μM, an example of the “temporary treatment medium” of this example) and Y-27632-free mWM medium (an example of “normal medium” of this example) were dropped on 35 mm Petri dish in 5 drops, respectively, to prepare the drops covered with paraffin oil.
2. Pronuclear stage embryos were collected from the drops, placed in Y-27632-added mWM medium, and cultured for about 30 minutes to 1 hour (temporary treatment).
3. After that, TAKE was performed. At the time of this TAKE, as described above, the pronuclear stage embryo, after washing, was transferred to a genome editing solution for TAKE or an Opti-MEM solution. The same applied to the following processing.
4. After TAKE, the embryos were placed in Y-27632-added mWM medium (temporary treatment) and cultured under 37° C., 5% CO2, and ([…]) conditions until the next day (1 hour or more and within 12 hours).
5. If necessary, culture was continued or embryo transfer was performed in Y-free mWM medium.
According to a typical method, in the afternoon when female mice and rats were mated with males with vasoligation and confirmed to be plugged, about 10 each were transplanted into the left and right oviducts or uterus of plug-confirmed mature female mice and rats. […]

Setting [4] is: NOD-scid F0, Bbox1 and IL2rg, listed as temporary treatment medium.

Consider `C[C@@H](N)[C@H]1CC[C@H](C(=O)Nc2ccncc2)CC1` [Y-27632, trans-4-[(1R)-1-Aminoethyl]-N-4-pyrid inylcyclohexanecarboxamide], for which, in the assay on inbred mouse B6J embryos, the Flox individuals % came out at 16.7% and the “NUMBER OF FLOX INDIVIDUALS” value was 1/6. Further, in the assay on NOD-scid mouse embryos (NOD-scid F0), the “individuals mutated at Bbox1 Ex3 (chr. 2) (proportion)” value is “#U: unknown mutation (4/9) (4/9)”, the “individuals mutated at Il2rg (chr. X) Ex2 (proportion)” value is recorded as “#U: unknown mutation (4/9) (4/9)” and the “individuals mutated at Il2rg (chr. X) Ex3 (proportion)” value is recorded as “#U: unknown mutation (4/9) (4/9)”. For the same molecule, in the assay with NOD-scid mouse embryos (setting [4]), the “individuals with mutations in one of the two genes (%)” value is listed as 66.7%; the “individuals with mutations in one of the two genes (proportion)” value was 6 out of 9 and (6/9). Moreover, the “samples developed to blastocysts (PCR AMPLIFICATION)” value in assay [1] (F344, 2STEP, of 86 samples) is recorded as 67. Moreover, the “Flox (proportion)” value in assay [1] (F344 blastocysts, 2STEP) was 1/67. Also, in assay [2], the “RECOVERY RATE about 3 hours later” value came to 94%, the “RECOVERY RATE about 24 hours later” value is recorded as 89%, the “RECOVERY RATE immediately after thawing” value is reported as 36% and the “number of embryos ABOUT 3 HOURS LATER” value amounted to 18. Moreover, in assay [2], the “number of embryos ABOUT 24 HOURS LATER” value is 17 and the “number of embryos IMMEDIATELY AFTER THAWING” value amounted to 7. Also, in assay [3] (C57BL/6J embryos cultured in Y-27632 medium before and after electroporation, Mk-3 knockout with two gRNAs, versus without Y-27632), the birth rate increased entry is “about 5 times”. Also, in assay [3] (C57BL/6J, Mk-3 knockout, Y-27632 before and after electroporation), the “efficiency of non-homologous end joining (NHEJ)” value is reported as “did not change”.
